Measurements as given in patent US20090068161A1, “USE OF A COMBINATION OF HESPERIDIN AND OF A MICROORGANISM FOR INFLUENCING THE BARRIER FUNCTION OF THE SKIN” (L'OREAL, priority 2007, published 2009).

Tested on: Episkin® model (reconstituted skin)
Assay: Barrier function of reconstituted skin (Episkin® model): penetration of a nonpenetrating reference compound (cationic anthraquinone)
Format: cell-based
Conditions: condition E: Episkin® treated from D6 to D13 with 10 μM Hes7Glu; dye 1 mM applied for 4 hours
Description: The conversion of a nutritional agent (hereinafter known as probiotic conditioned medium) after ingestion is first of all stimulated, for the purpose of resulting use directly on a skin model (stage A).
The medium of the cocultures stimulated with Lactobacillus paracasei, resulting from the basolateral compartment, is subsequently withdrawn and its effects, in combination with the most important metabolite of hesperidin, hesperitin-7 glucuronide (Hes7Glu), on the barrier function in the Episkin® model are subsequently tested in vitro (stage B).
A—Preparation of the Probiotic Conditioned Medium
An intestinal barrier model (comprising human enterocyte lines (Caco-2) co-cultured with human leukocytes in a “transwell” cell co-culture system [Haller D, 2000]) has been developed. […]
The receiving liquid (RL) is collected and then assayed directly at the end of application by HPLC. Each point is analysed in duplicate. […]
The concentration is determined using a calibration range produced on the same day. The degrees of penetration are calculated from the ratio of the amount in the RL to the amount applied, the following results having in addition formed the subject of a statistical study using the Wilcoxon tests.

COc1ccc([C@@H]2CC(=O)c3c(O)cc(O[C@@H]4O[C@H](C(=O)O)[C@@H](O)[C@H](O)[C@H]4O)cc3O2)cc1O [Hes7Glu, hesperitin-7 glucuronide]
effect on the barrier function (degree of penetration of the cationic anthraquinone): no significant effect
